Consider 13 compounds from patent publication US20260014147A1, “STAT6 DEGRADERS” (Gilead Sciences, Inc., priority 2024, published 2026).

What is called DC50 is the midpoint of the concentration-degradation curve. As a reminder, the Emax is the size of the effect at its maximum, as opposed to the concentration needed.

In this assay the target is T1, STAT6 (endogenous, HiBiT-tagged) in HeLa LgBiT clone 4.14 cells (Homo sapiens, UniProt P42226).
T1 construct: These cells express endogenous STAT6; host or cells: HeLa LgBiT clone 4.14
T1 sequence (P42226 1-847): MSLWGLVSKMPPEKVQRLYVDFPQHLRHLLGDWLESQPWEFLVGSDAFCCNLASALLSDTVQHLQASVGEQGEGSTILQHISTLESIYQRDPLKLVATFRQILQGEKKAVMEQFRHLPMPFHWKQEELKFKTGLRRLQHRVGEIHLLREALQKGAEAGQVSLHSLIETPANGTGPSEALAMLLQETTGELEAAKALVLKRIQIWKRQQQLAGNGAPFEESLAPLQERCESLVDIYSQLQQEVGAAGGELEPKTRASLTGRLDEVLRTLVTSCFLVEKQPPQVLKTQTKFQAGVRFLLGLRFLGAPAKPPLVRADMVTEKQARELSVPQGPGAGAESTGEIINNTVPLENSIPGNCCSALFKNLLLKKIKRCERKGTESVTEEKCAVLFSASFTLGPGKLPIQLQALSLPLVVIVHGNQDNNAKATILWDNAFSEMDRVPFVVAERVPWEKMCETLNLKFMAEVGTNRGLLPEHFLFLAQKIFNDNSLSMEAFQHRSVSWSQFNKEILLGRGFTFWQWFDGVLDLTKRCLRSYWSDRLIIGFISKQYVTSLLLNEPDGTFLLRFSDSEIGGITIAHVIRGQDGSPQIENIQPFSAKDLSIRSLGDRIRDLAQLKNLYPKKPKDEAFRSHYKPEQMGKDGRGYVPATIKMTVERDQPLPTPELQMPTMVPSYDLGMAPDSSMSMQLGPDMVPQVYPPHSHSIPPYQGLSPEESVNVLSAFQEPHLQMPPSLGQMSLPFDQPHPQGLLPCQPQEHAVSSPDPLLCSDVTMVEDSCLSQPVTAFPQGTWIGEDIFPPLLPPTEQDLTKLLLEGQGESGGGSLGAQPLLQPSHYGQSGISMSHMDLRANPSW
The experiment in a line: STAT6 Degrader Assay (HiBiT based, HeLa LgBiT clone 4.14 cells, luminescence, DC50). The assay is classed as cell-based. The conditions noted are these: geometric mean; for DC50: DC50 provided for test compounds with >80% Emax, read-out: STAT6 degradation DC50; for Emax: Emax provided for test compounds with <80% Emax (and 2c15), read-out: STAT6 degradation Emax. The procedure, abridged:
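Remaining STAT6 is read as NanoBiT luminescence after 0.5 h with Nano-Glo, in HeLa LgBiT clone 4.14 cells expressing endogenous HiBiT-tagged STAT6, following 4-24 h compound incubation at 37 °C. Full degradation is set by 50 µM terfenadine, which kills the cells; degradation plotted against log compound concentration.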
A general note: HiBiT is a short tag that completes a luciferase, so light tracks the accessible tagged protein.

Turning to `COCc1nc2cc(-c3ccnc4c3cc([C@H](C)N3CCC(c5ccc(C(=O)N6CCC(CN7CCN(c8ccc(NC9CCC(=O)NC9=O)cc8Cl)CC7)CC6)cc5)CC3)n4C)ccc2[nH]1` (stereo partly drawn) [Example 2i4, 3-((3-chloro-4-(4-((1-(4-(1-((S)-1-(4-(2-(methoxymethyl)-1H-benzo[d]imidazol-5-yl)-1-methyl-1H-pyrrolo[2,3-b]pyridin-2-yl)ethyl)piperidin-4-yl)benzoyl)piperidin-4-yl)methyl)piperazin-1-yl)phenyl)amino)piperidine-2,6-dione], the DC50 was found to be 7.6 nM.

Turning to `COCc1nc2cc(-c3ccnc4c3cc([C@H](C)N3CCC(c5ccc(C(=O)N6CCC(CN7CCN(c8ccc(NC9CCC(=O)NC9=O)cc8C(F)(F)F)CC7)CC6)cc5)CC3)n4C)ccc2[nH]1` (stereo partly drawn) [Example 2i5, 3-((4-(4-((1-(4-(1-((S)-1-(4-(2-(methoxymethyl)-1H-benzo[d]imidazol-5-yl)-1-methyl-1H-pyrrolo[2,3-b]pyridin-2-yl)ethyl)piperidin-4-yl)benzoyl)piperidin-4-yl)methyl)piperazin-1-yl)-3-(trifluoromethyl)phenyl)amino)piperidine-2,6-dione], the DC50 is 34 nM.

Regarding `C[C@@H](c1cc2c(-c3ccc(N)nc3)ccnc2n1C)N1CCC(c2ccc(C(=O)N3CCC(CN4CCN(c5ccc(NC6CCC(=O)NC6=O)cc5Cl)CC4)CC3)cc2)CC1` (stereo partly drawn) [Example 2i6, 3-((4-(4-((1-(4-(1-((S)-1-(4-(6-aminopyridin-3-yl)-1-methyl-1H-pyrrolo[2,3-b]pyridin-2-yl)-ethyl)piperidin-4-yl)benzoyl)piperidin-4-yl)methyl)piperazin-1-yl)-3-chlorophenyl)amino)piperidine-2,6-dione], the Emax lay in the range of 70 to 80%.

Take `C[C@@H](c1cc2c(-c3ccc(N)nc3)ccnc2n1C)N1CCC(c2ccc(C(=O)N3CCC(CN4CCN(c5ccc(NC6CCC(=O)NC6=O)cc5C(F)(F)F)CC4)CC3)cc2)CC1` (stereo partly drawn) [Example 2i7, 3-((4-(4-((1-(4-(1-((S)-1-(4-(6-aminopyridin-3-yl)-1-methyl-1H-pyrrolo[2,3-b]pyridin-2-yl)-ethyl)-piperidin-4-yl)benzoyl)piperidin-4-yl)methyl)piperazin-1-yl)-3-(trifluoromethyl)phenyl)amino)-piperidine-2,6-dione]: the maximum response (Emax) lay in the range of 40 to 50%.

Regarding `CN(C(=O)c1ccc(C2CCN(Cc3cc4c(-c5ccc6[nH]ncc6c5)ccnc4n3C)CC2)cc1)c1ccc(C2CCN(c3ccc(NC4CCC(=O)NC4=O)cc3F)CC2)cc1` (stereo not shown) [Example 2j1, 4-(1-((4-(1H-indazol-5-yl)-1-methyl-1H-pyrrolo[2,3-b]pyridin-2-yl)methyl)piperidin-4-yl)-N-(4-(1-(4-((2,6-dioxopiperidin-3-yl)amino)-2-fluorophenyl)piperidin-4-yl)phenyl)-N-methylbenzamide], the Emax lay within 70 to 80%.

Regarding `CN(C(=O)c1ccc(C2CCN(Cc3cc4c(-c5ccc6[nH]ncc6c5)ccnc4n3C)CC2)cc1)c1ccc(C2CCN(c3ccc(NC4CCC(=O)NC4=O)cc3)CC2)cc1` (stereo not shown) [Example 2j2, 4-(1-((4-(1H-indazol-5-yl)-1-methyl-1H-pyrrolo[2,3-b]pyridin-2-yl)methyl)piperidin-4-yl)-N-(4-(1-(4-((2,6-dioxopiperidin-3-yl)amino)phenyl)piperidin-4-yl)phenyl)-N-methylbenzamide], the Emax lay in the range of 40 to 50%.

In the case of `Cn1c(CN2CCC(c3ccc(C(=O)N4CCC(CN5CCN(c6ncc(NC7CCC(=O)NC7=O)cn6)CC5)CC4)cc3)CC2)cc2c(-c3ccc4[nH]ncc4c3)ccnc21` (stereo not shown) [Example 2k1, 3-((2-(4-((1-(4-(1-((4-(1H-indazol-5-yl)-1-methyl-1H-pyrrolo[2,3-b]pyridin-2-yl)methyl)-piperidin-4-yl)benzoyl)piperidin-4-yl)methyl)piperazin-1-yl)pyrimidin-5-yl)amino)piperidine-2,6-dione], the DC50 amounted to 28.8 nM.

Consider `Cn1c(CN2CCC(c3ccc(C(=O)N4CCC(CN5CCN(c6nccc(NC7CCC(=O)NC7=O)n6)CC5)CC4)cc3)CC2)cc2c(-c3ccc4[nH]ncc4c3)ccnc21` (stereo not shown) [Example 2k2, 3-((2-(4-((1-(4-(1-((4-(1H-indazol-5-yl)-1-methyl-1H-pyrrolo[2,3-b]pyridin-2-yl)methyl)-piperidin-4-yl)benzoyl)piperidin-4-yl)methyl)piperazin-1-yl)pyrimidin-4-yl)amino)piperidine-2,6-dione], for which the Emax lay within 30 to 40%.

Regarding `Cn1c(CN2CCC(c3ccc(C(=O)N4CCC(CN5CCN(c6ccnc(NC7CCC(=O)NC7=O)n6)CC5)CC4)cc3)CC2)cc2c(-c3ccc4[nH]ncc4c3)ccnc21` (stereo not shown) [Example 2k3, 3-((4-(4-((1-(4-(1-((4-(1H-indazol-5-yl)-1-methyl-1H-pyrrolo[2,3-b]pyridin-2-yl)methyl)-piperidin-4-yl)benzoyl)piperidin-4-yl)methyl)piperazin-1-yl)pyrimidin-2-yl)amino)piperidine-2,6-dione], the Emax lay within 30 to 40%.

On to `Cn1c(CN2CCC(c3ccc(C(=O)N4CCC(CN5CCN(c6cccc(NC7CCC(=O)NC7=O)c6)CC5)CC4)cc3)CC2)cc2c(-c3ccc4[nH]ncc4c3)ccnc21` (stereo not shown) [Example 2l1, 3-((3-(4-((1-(4-(1-((4-(1H-indazol-5-yl)-1-methyl-1H-pyrrolo[2,3-b]pyridin-2-yl)methyl)-piperidin-4-yl)benzoyl)piperidin-4-yl)methyl)piperazin-1-yl)phenyl)amino)piperidine-2,6-dione], for which the Emax lay within 60 to 70%.

On to `COCc1nc2cc(-c3ccnc4c3cc([C@H](C)N3CCC(c5ccc(C(=O)N6CCC(CN7CCC(c8ccc(NC9CCC(=O)NC9=O)cc8F)C(F)(F)C7)CC6)cc5)CC3)n4C)ccc2[nH]1` (stereo partly drawn) [Example 2m3, 3-((4-(3,3-difluoro-1-((1-(4-(1-((S)-1-(4-(2-(methoxymethyl)-1H-benzo[d]imidazol-5-yl)-1-methyl-1H-pyrrolo[2,3-b]pyridin-2-yl)ethyl)piperidin-4-yl)benzoyl)piperidin-4-yl)methyl)piperidin-4-yl)-3-fluorophenyl)amino)piperidine-2,6-dione], for which the DC50 amounted to 23.5 nM.

Take `Cn1c(CN2CCC(c3ccc(C(=O)N4CCC(CN5CCN(c6ccc(NC7CCC(=O)NC7=O)cn6)CC5)CC4)cc3)CC2)cc2c(-c3ccc4[nH]ncc4c3)ccnc21` (stereo not shown) [Example 2n1, 3-((6-(4-((1-(4-(1-((4-(1H-indazol-5-yl)-1-methyl-1H-pyrrolo[2,3-b]pyridin-2-yl)methyl)piperidin-4-yl)benzoyl)piperidin-4-yl)methyl)piperazin-1-yl)pyridin-3-yl)amino)piperidine-2,6-dione]: the DC50 was determined as 15.2 nM.

For `Cn1c(CN2CCC(c3ccc(C(=O)N4CCC(CN5CCN(c6ccc(NC7CCC(=O)NC7=O)c(F)n6)CC5)CC4)cc3)CC2)cc2c(-c3ccc4[nH]ncc4c3)ccnc21` (stereo not shown) [Example 2n2, 3-((6-(4-((1-(4-(1-((4-(1H-indazol-5-yl)-1-methyl-1H-pyrrolo[2,3-b]pyridin-2-yl)methyl)-piperidin-4-yl)benzoyl)piperidin-4-yl)methyl)piperazin-1-yl)-2-fluoropyridin-3-yl)amino)piperidine-2,6-dione], the DC50 was 28.6 nM.
